Experimental findings from patent US9789082B2, “Somatostatin receptor subtype 4 (SSTR4) agonists” (Centrexion Therapeutics Corporation, priority 2013, dated 2017) are described below.

Read-outs that look alike come from different tables or passages of the source.

Data set [1] in a line: Metabolic stability in pooled human liver microsomes (half-life). Format: in vitro ADME. The conditions noted are these: 1 μM test compound; for half-life at 1 μM: pooled human liver microsomes, pH 7.6, 37° C., read-out: Half-life t1/2; for Half-life t1/2: 37° C. As for the experimental part: The metabolic stability of the compounds according to the invention may be investigated as follows:
The metabolic degradation of the test compound is assayed at 37° C. with pooled human liver microsomes. The final incubation volume of 100 μl per time point contains TRIS buffer pH 7.6 at room temperature (0.1 M), magnesium chloride (5 mM), microsomal protein (1 mg/mL) and the test compound at a final concentration of 1 μM. Following a short preincubation period at 37° C., the reactions are initiated by addition of beta-nicotinamide adenine dinucleotide phosphate, reduced form (NADPH, 1 mM), and terminated by transferring an aliquot into solvent after different time points. After centrifugation (10000 g, 5 min), an aliquot of the supernatant is assayed by LC-MS/MS for the amount of parent compound. The half-life is determined by the slope of the semi-logarithmic plot of the concentration-time profile.
In general terms: Liver microsomes are vesicles of endoplasmic reticulum, rich in cytochrome P450 enzymes.

A further data set concerns the target human SSTR4 (Homo sapiens (Human), UniProt P31391). The data set can be described thus: Radioligand binding assay, CHO cell membranes expressing recombinant human SSTR4. The text has this:
(§1) Radioligand Binding Assays
(§2) Method Description for Binding Assays with Human Somatostatin Receptors by Use of CHO Cell Membranes Expressing Recombinant Human SSTR1 or Human SSTR2 or Human SSTR3 or Human SSTR4 or Human SSTR5
(§3) Receptor binding assays refer to a technique in which labeled receptor ligands are used to detect binding to a receptor. In competition experiments test compounds, which are not labeled, compete with the binding side of a labeled ligand. The displacement of the labeled ligand by the test compound leads to a decreased signal.
(§4) For the binding experiments 200 μL of membrane homogenate from one of the following protein amounts is used: hSSTR1 (40 μg/well); hSSTR2 (25 μg/well); hSSTR3 (1.5 μg/well); hSSTR4 (0.5 μg/well); hSSTR5 (25 μg/well). […] The incubation is terminated by filtration with ice cold NaCl 0.9% through polyethyleneimine treated (0.3%) GF/B glass fiber filters using a cell harvester. The protein-bound radioactivity is measured in a suitable reader. The non-specific binding is defined as radioactivity bound in the presence of 1 μM Somatostatin-14 during the incubation period.
(§5) The analysis of the concentration-binding curves is performed by computer-assisted nonlinear least square curve fitting method using the model of one receptor binding site.
(§6) Selectivity data was obtained with the aid of the above described radioligand binding assays.

The target in data set [2] is human Somatostatin 4 receptor (SSTR4) (Homo sapiens (Human), UniProt P31391). The data set can be described thus: cAMP assay with human somatostatin 4 receptor (hSSTR4 expressing H4 cells). Format: cell-based.
Sequence of human Somatostatin 4 receptor (SSTR4) (P31391 whole entry): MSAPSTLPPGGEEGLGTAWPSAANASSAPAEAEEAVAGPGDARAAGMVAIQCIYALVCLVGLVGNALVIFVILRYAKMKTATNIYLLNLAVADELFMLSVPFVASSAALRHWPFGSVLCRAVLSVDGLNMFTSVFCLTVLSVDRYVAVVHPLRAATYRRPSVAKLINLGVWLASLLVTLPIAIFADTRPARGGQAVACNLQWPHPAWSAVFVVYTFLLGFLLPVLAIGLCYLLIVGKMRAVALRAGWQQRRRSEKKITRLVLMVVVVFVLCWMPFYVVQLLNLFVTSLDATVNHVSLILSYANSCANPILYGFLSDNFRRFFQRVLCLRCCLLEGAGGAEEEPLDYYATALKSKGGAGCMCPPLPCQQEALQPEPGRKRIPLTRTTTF
Another data set addresses human SSTR3 (Homo sapiens (Human), UniProt P32745). The data set is described as follows: Radioligand binding assay, CHO cell membranes expressing recombinant human SSTR3.
Source text: as §1, §2, §3, §4, §5, §6

The target in the next data set is human SSTR1 (Homo sapiens (Human), UniProt P30872). The data set is described as follows: Radioligand binding assay, CHO cell membranes expressing recombinant human SSTR1.
Sequence of human SSTR1 (P30872 whole entry): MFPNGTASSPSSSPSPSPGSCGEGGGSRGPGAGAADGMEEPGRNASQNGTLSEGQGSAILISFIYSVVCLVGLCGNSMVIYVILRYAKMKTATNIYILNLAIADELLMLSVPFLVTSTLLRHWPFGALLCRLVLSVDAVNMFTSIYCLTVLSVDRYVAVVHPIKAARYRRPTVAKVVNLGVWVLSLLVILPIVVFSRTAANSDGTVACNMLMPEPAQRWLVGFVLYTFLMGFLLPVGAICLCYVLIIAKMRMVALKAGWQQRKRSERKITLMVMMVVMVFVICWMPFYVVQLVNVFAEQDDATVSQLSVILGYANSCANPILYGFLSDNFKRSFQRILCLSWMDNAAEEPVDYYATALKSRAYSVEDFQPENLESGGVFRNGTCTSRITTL
Source text: as §1, §2, §3, §4, §5, §6

The next data set addresses human SSTR2 (Homo sapiens (Human), UniProt P30874). The data set can be described thus: Radioligand binding assay, CHO cell membranes expressing recombinant human SSTR2.
Source text: as §1, §2, §3, §4, §5, §6

The next data set deals with human SSTR5 (Homo sapiens (Human), UniProt P35346). The data set is described as follows: Radioligand binding assay, CHO cell membranes expressing recombinant human SSTR5.
Sequence of human SSTR5 (P35346 whole entry): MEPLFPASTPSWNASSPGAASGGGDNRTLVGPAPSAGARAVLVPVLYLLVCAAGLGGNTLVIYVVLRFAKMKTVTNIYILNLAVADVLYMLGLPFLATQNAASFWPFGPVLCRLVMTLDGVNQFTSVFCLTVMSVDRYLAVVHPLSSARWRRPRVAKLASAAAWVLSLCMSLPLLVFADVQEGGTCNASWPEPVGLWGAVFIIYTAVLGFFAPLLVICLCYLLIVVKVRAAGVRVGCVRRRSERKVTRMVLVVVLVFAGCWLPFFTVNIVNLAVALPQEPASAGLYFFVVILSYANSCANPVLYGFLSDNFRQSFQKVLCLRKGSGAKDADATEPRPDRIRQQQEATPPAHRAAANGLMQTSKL
Source text: as §1, §2, §3, §4, §5, §6

The mark [3] stands for this setting: cAMP assay, read-out: SSTR4 agonism EC50.

Sequence of human SSTR3 (P32745 whole entry): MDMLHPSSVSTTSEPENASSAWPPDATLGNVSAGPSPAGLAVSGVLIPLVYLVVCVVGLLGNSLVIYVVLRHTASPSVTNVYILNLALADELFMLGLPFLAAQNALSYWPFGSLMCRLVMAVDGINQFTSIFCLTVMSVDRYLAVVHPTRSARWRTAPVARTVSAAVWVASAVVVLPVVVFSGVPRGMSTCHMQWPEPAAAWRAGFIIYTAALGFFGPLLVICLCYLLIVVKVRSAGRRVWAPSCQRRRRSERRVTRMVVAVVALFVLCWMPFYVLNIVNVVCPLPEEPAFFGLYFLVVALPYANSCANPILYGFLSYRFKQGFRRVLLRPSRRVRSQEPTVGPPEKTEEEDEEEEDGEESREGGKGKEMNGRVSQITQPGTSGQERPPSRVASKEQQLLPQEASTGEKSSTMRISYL
Sequence of human SSTR2 (P30874 whole entry): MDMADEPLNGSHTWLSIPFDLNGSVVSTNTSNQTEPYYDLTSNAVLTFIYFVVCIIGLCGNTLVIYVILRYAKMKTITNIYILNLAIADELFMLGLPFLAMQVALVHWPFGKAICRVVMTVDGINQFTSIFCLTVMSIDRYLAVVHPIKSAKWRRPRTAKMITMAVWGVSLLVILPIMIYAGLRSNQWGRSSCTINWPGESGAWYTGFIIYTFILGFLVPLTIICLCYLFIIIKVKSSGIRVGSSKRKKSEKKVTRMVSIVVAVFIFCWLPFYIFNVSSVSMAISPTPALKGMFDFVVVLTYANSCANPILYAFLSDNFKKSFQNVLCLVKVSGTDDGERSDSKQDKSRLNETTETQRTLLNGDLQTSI
Sequence of human SSTR4 (P31391 whole entry): as the sequence (P31391 whole entry) above

In the case of `CC(C)(NC(=O)[C@H]1[C@@H]2CNC[C@@H]21)c1nc2ccc(Cl)cc2[nH]1.Cl` [Example 11], the half-life at 1 μM in data set [1] was > 2.17 h. The Ki on human SSTR4 is 106 nM; at human SSTR3 it was > 8580 nM; at human SSTR1, > 8910 nM; at human SSTR2 it was > 9590 nM; on human SSTR5 it was > 9850 nM. The EC50 in data set [2] (setting [3]) is 8.1 nM.

Regarding `CC(C)(NC(=O)[C@H]1[C@@H]2CNC[C@@H]21)c1ccnc2ccccc12.Cl` [Example 21], in data set [1], the half-life at 1 μM is > 2.17 h. Also, the Ki was 10.8 nM at human SSTR4; > 8580 nM at human SSTR3; > 8910 nM on human SSTR1; > 9590 nM at human SSTR2; > 9850 nM at human SSTR5. The EC50 in data set [2] (setting [3]) came to 0.7 nM.

On to `Cc1cc2ccccc2c(C(C)(C)NC(=O)[C@H]2[C@@H]3CNC[C@@H]32)n1.Cl` [Example 22], for which, in data set [1], the half-life at 1 μM was > 2.17 h. In addition, the Ki is 3.7 nM on human SSTR4, 848 nM at human SSTR1, > 9590 nM on human SSTR2 and > 9850 nM on human SSTR5. Besides, the EC50 in data set [2] (setting [3]) is 0.4 nM.

Regarding `CC(C)(NC(=O)[C@H]1[C@@H]2CNC[C@@H]21)c1nccc2ccccc12.Cl` [Example 24], the half-life at 1 μM in data set [1] was > 2.17 h. Also, the Ki at human SSTR4 is 2.9 nM; at human SSTR3, > 8650 nM; at human SSTR1, 2820 nM; on human SSTR2, > 9610 nM; at human SSTR5, > 9860 nM. Further, in data set [2] (SSTR4 agonism EC50, cAMP assay), the midpoint of the response, the EC50, lay at 0.5 nM.

As to `Cc1cccnc1C(C)(C)NC(=O)[C@H]1[C@@H]2CNC[C@@H]21.Cl.Cl` [Example 25], in data set [1], the half-life at 1 μM was > 2.17 h. The Ki at human SSTR4 is 114 nM; at human SSTR3 it was > 8640 nM; on human SSTR1 it was > 8960 nM; at human SSTR2, > 9610 nM; at human SSTR5, > 9860 nM. The compound also showed an EC50 in data set [2] (SSTR4 agonism EC50, cAMP assay) of 14.8 nM.

With `Cc1ccccc1OCC(C)(C)NC(=O)[C@H]1[C@@H]2CNC[C@@H]21.Cl` [Example 40], the half-life at 1 μM in data set [1] is > 2.17 h. For the same compound, the Ki on human SSTR4 was 37.1 nM; on human SSTR3 it was > 8630 nM; at human SSTR1, > 9760 nM; on human SSTR2, > 9600 nM; on human SSTR5, > 9850 nM. Further, the EC50 in data set [2] (setting [3]) came to 5 nM.

`Cc1cccnc1OCC(C)(C)NC(=O)[C@H]1[C@@H]2CNC[C@@H]21` [Example 47]: the half-life at 1 μM in data set [1] was > 2.17 h. For the same compound, the Ki at human SSTR4 was 39.9 nM; at human SSTR3, > 8620 nM; on human SSTR1 it was > 9150 nM; at human SSTR2, > 9600 nM; on human SSTR5, > 9850 nM. Besides, the EC50 in data set [2] (setting [3]) came out at 3.7 nM.

For the compound `Cn1nc(C(C)(C)NC(=O)[C@H]2[C@@H]3CNC[C@@H]32)c2ccccc21` [Example 49], the half-life at 1 μM in data set [1] is > 2.17 h. Moreover, the inhibitory constant (Ki) at human SSTR4 is 4.5 nM; at human SSTR3 it was > 8620 nM; at human SSTR1, 4540 nM; on human SSTR2, > 9600 nM; at human SSTR5, > 9860 nM. Also, in data set [2] (setting [3]), the EC50 came to 0.4 nM.

As to `CC(C)(COc1nccc2ccccc12)NC(=O)[C@H]1[C@@H]2CNC[C@@H]21` [Example 56], the half-life at 1 μM in data set [1] was > 2.17 h. In addition, the Ki on human SSTR4 was 100 nM; on human SSTR3, > 8630 nM; on human SSTR1, 3460 nM; on human SSTR2 it was > 9610 nM; at human SSTR5, > 9850 nM. Moreover, in data set [2] (setting [3]), the EC50 came out at 5.5 nM.

With `CC(C)(COc1cnccc1C(F)(F)F)NC(=O)[C@H]1[C@@H]2CNC[C@@H]21` [Example 63], in data set [1], the half-life at 1 μM was > 2.17 h. The Ki on human SSTR4 is 68.9 nM; on human SSTR3 it was > 7070 nM; at human SSTR1, > 7510 nM; on human SSTR2, > 7880 nM; on human SSTR5, > 8080 nM. The response in data set [2] (SSTR4 agonism EC50, cAMP assay) was half-maximal at 4.1 nM (EC50).

Turning to `Cc1cc2cccnc2c(C(C)(C)NC(=O)[C@H]2[C@@H]3CNC[C@@H]32)n1` [Example 78], in data set [1], the half-life at 1 μM was > 2.17 h. The Ki at human SSTR4 is 97.2 nM; on human SSTR3 it was > 8710 nM; on human SSTR1, 6640 nM; on human SSTR2, > 9630 nM; at human SSTR5 it was > 9860 nM. Moreover, in data set [2] (setting [3]), the EC50 worked out at 3.2 nM.

With `Cc1ncc(C(C)(C)NC(=O)[C@H]2[C@@H]3CNC[C@@H]32)c2ccccc12` [Example 80], the half-life at 1 μM in data set [1] was > 2.17 h. Besides, the Ki at human SSTR4 was 1.2 nM; on human SSTR3 it was > 8710 nM; on human SSTR1 it was 508 nM; on human SSTR2 it was > 9630 nM; on human SSTR5, > 9860 nM. In addition, the EC50 in data set [2] (setting [3]) turned out to be 0.3 nM.

For `Cc1cccc2c(C(C)(C)NC(=O)[C@H]3[C@@H]4CNC[C@@H]43)n[nH]c12` [Example 93], the “Half-life t1/2” value in data set [1] is >2.17 h. In addition, the Ki on human SSTR3 was > 8690 nM; on human SSTR1 it was 7030 nM; on human SSTR2, > 9630 nM; at human SSTR5, > 9770 nM.

`CC(C)(NC(=O)[C@H]1[C@@H]2CNC[C@@H]21)c1n[nH]c2ccccc12` [Example 94]: in data set [1], the “Half-life t1/2” value was >2.17 h. The Ki is 15.9 nM at human SSTR4; > 8690 nM on human SSTR3; > 9480 nM at human SSTR1; > 9630 nM at human SSTR2; > 9770 nM at human SSTR5.

Turning to `CC(C)(NC(=O)[C@H]1[C@@H]2CNC[C@@H]21)c1noc2c(F)cccc12` [Example 101], the half-life at 1 μM in data set [1] is > 2.17 h. For the same compound, the Ki is 46.2 nM at human SSTR4; > 8600 nM on human SSTR3; > 9090 nM on human SSTR1; > 9600 nM on human SSTR2; > 9850 nM on human SSTR5. The EC50 in data set [2] (setting [3]) was determined as 1.2 nM.

Regarding `Cc1cccc2c(C(C)(C)NC(=O)[C@H]3[C@@H]4CNC[C@@H]43)nn(C)c12` [Example 107], the half-life at 1 μM in data set [1] was > 2.17 h. Also, the Ki at human SSTR3 is > 8600 nM; at human SSTR1, 4300 nM; on human SSTR2, > 9600 nM; on human SSTR5, > 9850 nM.

Turning to `CC(C)(NC(=O)[C@H]1[C@@H]2CNC[C@@H]21)c1nc(C2CC2)c2c(F)cccn12` [Example 149], in data set [1], the half-life at 1 μM was > 2.17 h. The EC50 in data set [2] (setting [3]) came to 1 nM.

For `Cc1cccn2c(C(C)(C)NC(=O)[C@H]3[C@@H]4CNC[C@@H]43)cnc12` [Example 150], the half-life at 1 μM in data set [1] was > 2.17 h. Further, the EC50 in data set [2] (setting [3]) came out at 0.9 nM.

As to `Cc1nc(C(C)(C)NC(=O)[C@H]2[C@@H]3CNC[C@@H]32)n2cccc(F)c12` [Example 151], the half-life at 1 μM in data set [1] is > 2.17 h. The EC50 in data set [2] (setting [3]) was determined as 0.6 nM.

Regarding `CC(C)(NC(=O)[C@H]1[C@@H]2CNC[C@@H]21)c1ncnc2c(Cl)cccc12` [Example 156], the half-life at 1 μM in data set [1] is > 2.17 h. Also, the EC50 in data set [2] (setting [3]) was found to be 7.4 nM.

On to `Cc1cc(F)cn2c(C(C)(C)NC(=O)[C@H]3[C@@H]4CNC[C@@H]43)ncc12` [Example 158], for which the half-life at 1 μM in data set [1] was > 2.17 h. Further, the EC50 in data set [2] (setting [3]) was determined as 0.8 nM.

Take `Cc1cccn2c([C@H](C)NC(=O)[C@H]3[C@@H]4CNC[C@@H]43)ncc12` [Example 159]: in data set [1], the half-life at 1 μM is > 2.17 h. Further, the EC50 in data set [2] (setting [3]) worked out at 15.4 nM.

For `CC(C)(NC(=O)[C@H]1[C@@H]2CNC[C@@H]21)c1cnn2ccccc12` [Example 167], in data set [1], the half-life at 1 μM is > 2.17 h. Also, the EC50 in data set [2] (setting [3]) stood at 4.9 nM.

With `CC(C)(NC(=O)[C@H]1[C@@H]2CNC[C@@H]21)c1cnn2c1CCCC2` [Example 168], the half-life at 1 μM in data set [1] was > 2.17 h. In data set [2] (setting [3]), the EC50 is 47.3 nM.

For orientation: Ki means the dissociation constant of the complex between target and ligand, obtained from inhibition or displacement. The EC50 is the concentration needed to bring the measured effect to its halfway point.
